Measurements published in patent US9254331B2, “Sulforaphane stabilization” (AURIGA INTERNATIONAL, priority 2010, dated 2016).

Experiments:
[1] = allyl isothiocyanate sample treated one hour in boiling water, cited from earlier work
[2] = Experimental: The stability of sulforaphane was investigated in the following way: a 1% sulforaphane solution is prepared in different media to be tested. The preparation, maintained in a closed container is then thermostated at 25° C., 37° C. or 40° C. Kinetic tracking is carried out by assaying the residual sulforaphane.
The HPLC method used is the following:
Column: Discovery C18 (15 cm×4.8 mm×5 μm)
Mobile Phase: isocratic CH3CN/H2O (50/50)
Injection (10 μL) after dilution of the parent solution in the mobile phase in order to obtain a sulforaphane concentration of 1 mg/mL.
External standard: naphthalene.
1% of sulforaphane were placed per mL of solution containing diphospholipides such as for example Phosal®. The preparation, maintained in a closed container is then thermostated at 40° C. Kinetic tracking is carried out by assaying the residual sulforaphane:
1% m/m sulforaphane solutions were prepared in each anhydrous ester mentioned above. Kinetic tracking of the degradation was then carried out at 40° C. by using naphthalene as an external standard.
Kinetic tracking of the degradation was then carried out at 40° C. by using naphthalene, as an external standard.

[3] = mixture of isoamyl salicylate, capric/caprylic triglyceride and silicone derivative, 2% sulforaphane
Remark: listed apart in the source
[4] = Stabilization of isothiocyanates with ascorbic acid upon storage; details: similar study with sulforaphane
Description: Further, it is also known how to stabilize allyl isothiocyanate with ascorbic acid.

[5] = NMR
[6] = cited from earlier work
[7] = after seven months, cited from earlier work
[8] = not given; remark: listed apart in the source
[9] = closed flask, non-inertized, exposed to light

C=CCN=C=S [allyl isothiocyanate, reference compound]
Concentration at pH 2.7 [1]: 379.06 mg/g
Concentration at pH 7.0 [1]: 290.27 mg/g
Concentration at pH 9.0 [1]: 270.46 mg/g

C=CCSSSSCC=C [diallyl tetrasulfide]
Concentration at pH 2.7 [1]: Traces
Concentration at pH 7.0 [1]: Traces
Concentration at pH 9.0 [1]: Traces

C1=CSSSC1 [4H-1,2,3-trithiin]
Concentration at pH 2.7 [1]: Traces
Concentration at pH 7.0 [1]: Traces
Concentration at pH 9.0 [1]: Traces

C=CCSSSCC=C [diallyl trisulfide]
Concentration at pH 2.7 [1]: 10.31 mg/g
Concentration at pH 7.0 [1]: 13.63 mg/g
Concentration at pH 9.0 [1]: 14.11 mg/g

C=CCSSCC=C [diallyl disulfide]
Concentration at pH 2.7 [1]: 8.09 mg/g
Concentration at pH 7.0 [1]: 11.47 mg/g
Concentration at pH 9.0 [1]: 12.71 mg/g

CC1CSSSS1 (centres unmarked) [5-methyl-1,2,3,4-tetrathiane]
Concentration at pH 2.7 [1]: 0.01 mg/g
Concentration at pH 7.0 [1]: 0.02 mg/g
Concentration at pH 9.0 [1]: 0.03 mg/g

C=CCSC#N [allyl thiocyanate]
Concentration at pH 2.7 [1]: 9.21 mg/g
Concentration at pH 7.0 [1]: 13.84 mg/g
Concentration at pH 9.0 [1]: 12.32 mg/g

C[S+]([O-])CCCCN=C=S (centres unmarked) [sulforaphane]
degradation in 2-octyl-dodecanol and dimethyl isosorbide ([2]; 1% (m/m) in 2-octyl-dodecanol (Nerol 20) and dimethyl isosorbide): degraded over time
degradation in vegetable oils ([2]; 1% (m/m) in jojoba, argan and eglantine rose oils): too substantial to allow commercial use
degradation in isostearate and coco caprylate-caprate ([2]; 1% (m/m) in triethylpropane triostearate and coco caprylate-caprate CCC, 40° C.): negligible
degradation in phospholipid medium ([2]; 1% in solution containing phospholipids (Phosal), 40° C., in less than 3 days): more than 40%
degradation in anhydrous esters ([2]; 1% m/m in ester 610, methyl salicylate, isoamyl salicylate, 40° C.): negligible
loss of sulforaphane ([2]; 1% solution in water, 40° C., after 2 days): 10%
remaining fraction of initial content ([2]; 1% solution in water, 40° C., after 10 days): 50%
degradation in cosmetic formulation ([2]; 2% (m/m) in isoamyl salicylate, capric/caprylic triglyceride and silicone derivative, 6 months at 40° C.): 3-5%
degradation in galenic formulation ([2]; 2% sulforaphane, 2 anhydrous esters and methylpolysiloxane A or B): no degradation is observed
time after which residual sulforaphane begins to fall ([2]; antioxidant hydro-alcoholic medium, 25° C.): 1 days
remaining fraction of initial amount ([2]; antioxidant hydro-alcoholic medium, 37° C., in less than 7 days): no more than 50%
degradation trend in ethanol ([2]; ethanol, 40° C., early days, coupling compound with ethanol formed): very dearly marked
degradation in tocopheryl acetate ([2]; tocopheryl acetate): no significant degradation
penetration into the skin [3]: good penetration into the skin
solubility in argan oil (argan oil): ~2%
solubility in eglantine rose oil (eglantine rose oil): ~3.5%
solubility in anhydrous esters (ester 610, methyl salicylate, isoamyl salicylate (Example 1)): > 6 % (m/m)
solubility in jojoba oil (jojoba oil): about 0.5 % (m/m)
solubilization in cosmetic formulation (mixture of isoamyl salicylate, capric/caprylic triglyceride and silicone derivative): 2%
solubility in pure anhydrous esters (triethylpropane triostearate, coco caprylate-caprate (Example 4)): > 6 % (m/m)
stabilization of sulforaphane by ascorbic acid [4]: not able to stabilize
degradation on heating with reflux in chloroform ([5]; 24 hour reflux): did not either show any degradation
stability in solution in DMSO [5, 9]: stable for at least one week
stability in solution in chloroform [5, 9]: stable for at least one week
degradation under accelerated versus normal ageing conditions ([6]; 50% of acacia gum, 40° C./75% humidity versus 25° C./60% humidity): twice more significant
degradation with 70% gum arabic at 25° C. ([6]; 70% gum arabic, 25° C., first week, then relatively stable): slight degradation
degradation with 70% gum arabic ([6]; 70% gum arabic, after one month, 40° C.): ≤ 30%
stabilization with 50% of acacia gum ([6]; sample having 50% of acacia gum): does not exhibit any particular stabilization
degradation with less suitable cyclodextrins ([7]; less suitable, not very stabilizing cyclodextrins): up to 50%
degradation with α-cyclodextrins ([7]; α-cyclodextrins): less than 10%
product degraded into 3-butenylisothiocyanate on injection in gas chromatography ([8]; thermostated injector at 250° C.): 80%
degradation when injected directly onto the column ([8]; without passing through the injector): no degradation peak is observed

C=CC1SC=CCS1 (centres unmarked) [2-vinyl-4-1,3-dithiin]
Concentration at pH 2.7 [1]: Traces
Concentration at pH 7.0 [1]: Traces
Concentration at pH 9.0 [1]: Traces

C1=CSSC1 [3H-1,2-dithiolene]
Concentration at pH 2.7 [1]: 0.13 mg/g
Concentration at pH 7.0 [1]: 0.17 mg/g
Concentration at pH 9.0 [1]: 0.19 mg/g

C=CCSCC=C [diallyl sulfide]
Concentration at pH 2.7 [1]: 13.09 mg/g
Concentration at pH 7.0 [1]: 22.16 mg/g
Concentration at pH 9.0 [1]: 26.40 mg/g
